Reference: patent US20100129317A1 (priority 2006, published 2010)
“Also recorded” adds a separate entry of the source.

Columns and labels:
Hantaan virus (HTNV) = type: cell-based
[1] = tested on: Crimean Congo Hemorraghic fever virus (CCHFV); type: cell-based
Human adenosine kinase [2] = target: T1, Human adenosine kinase (Homo sapiens, UniProt P55263); assay: Adenosine kinase activity with selected nucleoside analogs (conversion to 5'-monophosphate, HPLC); type: biochemical; details: 100 μM of each compound and ATP, 37° C., conversion to 5'-monophosphate by HPLC
T1 sequence (P55263 whole entry): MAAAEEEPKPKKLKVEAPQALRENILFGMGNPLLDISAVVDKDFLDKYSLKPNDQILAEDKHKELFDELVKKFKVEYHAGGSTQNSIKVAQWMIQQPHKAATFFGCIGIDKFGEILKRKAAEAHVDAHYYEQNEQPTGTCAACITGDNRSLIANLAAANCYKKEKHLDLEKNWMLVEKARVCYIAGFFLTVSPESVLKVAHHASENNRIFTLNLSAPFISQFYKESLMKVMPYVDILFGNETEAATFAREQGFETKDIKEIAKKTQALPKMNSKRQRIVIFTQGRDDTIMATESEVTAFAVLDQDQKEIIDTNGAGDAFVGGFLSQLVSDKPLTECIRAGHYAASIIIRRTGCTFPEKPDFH

Human adenosine kinase [3] = target: T1, Human adenosine kinase; assay: Radiolabeled TA-18 as substrate for human adenosine kinase; type: biochemical; details: radiolabeled compound, 10 μM
[4] = tested on: GTP levels in human cells; assay: Intracellular GTP levels in human cells; type: cell-based; details: for effect of treatment on GTP levels in human cells: 10 μM
influenza A/Udorn/72 = type: cell-based, Influenza A H3N2
human CEM cells = assay: Metabolism to phosphorylated intracellular metabolites in human cells

O=c1c2ncn([C@@H]3O[C@H](CO)[C@@H](O)[C@H]3O)c2ncn1-c1cccc(F)c1 [IA-3, N^1-(3-fluorophenyl)-inosine]
antiviral activity against HTNV (Hantaan virus (HTNV)): showed antiviral activity

Nc1c(C(=O)Nc2cccc(F)c2)ncn1[C@@H]1O[C@H](CO)C(O)C1O (stereo partly drawn) [RN-3, 5-amino-4-N-3-fluorophenylcarboxamide-1-β-D-ribofuranosyl-1H-imidazole]
antiviral activity against HTNV (Hantaan virus (HTNV)): showed activity

O=[N+]([O-])c1ncn([C@@H]2O[C@H](CO)C(O)[C@@H]2O)n1 (some centres unmarked) [TA-1]
antiviral activity against CCHFV [1]: showed antiviral activity

CC(=O)c1ncn([C@@H]2O[C@H](CO)[C@@H](O)[C@H]2O)n1 [TA-13, 1-(1-β-D-ribofuranosyl-[1,2,4]triazole-3-yl)-ethanone]
Activity as a percent of ribavirin (Human adenosine kinase [2]): 8% of ribavirin

OC[C@H]1O[C@@H](n2cnc(C(O)c3ccccc3)n2)C(O)[C@H]1O (stereo partly drawn) [TA-14, 1-(1-β-D-ribofuranosyl-[1,2,4]triazol-3-yl)-phenylmethanol]
antiviral activity against HTNV (Hantaan virus (HTNV)): showed antiviral activity

C#Cc1ncn([C@@H]2O[C@H](CO)[C@@H](O)[C@H]2O)n1 [TA-18, 3-ethynyl-1-(β-D-ribofuranosyl)-[1,2,4]triazole]
Activity as a percent of ribavirin (Human adenosine kinase [2]): 25% of ribavirin | substrate for human adenosine kinase (radiolabeled TA-18) (Human adenosine kinase [3]): it is a substrate for human adenosine kinase; also recorded: subs ate for human adenosine kinase | effect of treatment on GTP levels in human cells [4]: decline in GTP levels | potency of metabolites in reducing GTP levels compared with ribavirin metabolites ([4]; inferred from metabolite amounts and GTP decline): more potent in reducing GTP levels than the ribavirin metabolites | antiviral activity against HTNV (Hantaan virus (HTNV)): showed antiviral activity | antiviral activity against influenza (influenza A/Udorn/72): showed antiviral activity | antiviral activity against CCHFV [1]: showed antiviral activity | conversion to phosphorylated metabolites in human cells (human CEM cells; human CEM cells, 10 μM): converted to phosphorylated metabolites

NC(=O)CC(O)c1ncn([C@@H]2O[C@H](CO)[C@@H](O)[C@H]2O)n1 (stereo partly drawn) [TA-20, 3-(1-β-D-ribofuranosyl-[1,2,4]triazol-3-yl)-3-hydroxypropionamide]
Activity as a percent of ribavirin (Human adenosine kinase [2]): 5% of ribavirin

Nc1ncnc2c1c(I)cn2[C@@H]1O[C@H](CO)[C@@H](O)[C@H]1O [iodotubercidin, reference compound]
effect of adenosine kinase inhibition with iodotubercidin on the decline in GTP levels caused by TA-18 [4]: prevented the decline in GTP levels caused by TA-18 | effect of adenosine kinase inhibition with iodotubercidin on the metabolism of TA-18 (human CEM cells; human cells): inhibited the metabolism of TA-18

NC(=O)c1ncn([C@@H]2O[C@H](CO)[C@@H](O)[C@H]2O)n1 [ribavirin, reference compound]
effect of treatment on GTP levels in human cells [4]: decrease in GTP levels
